Measurements from US20250154138A1, “Small Molecule IL-17A Modulators” (BeiGene, Ltd., priority 2022, published 2025).
Like-named read-outs stand apart in the source and are kept apart here.

Experiments:
[1] = target: human IL-17A / human IL-17RA (Homo sapiens (Human), UniProt Q16552); test: Human IL-17A biochemical assay (HTRF, blocking of IL-17A binding to IL-17RA); details: 0.4 nM IL-17A, 0.3 nM IL-17RA, max compound concentration 10 uM
Method: Compounds disclosed herein were tested for blocking of human IL-17A (Cat: C774, novoprotein) protein with its receptor human IL-17RA (Cat: C153, novoprotein) in an assay based on Homogeneous Time Resolved Fluorescence. 0.4 nM recombinant human IL-17A protein was pre-incubated with a serial dilution of compounds disclosed herein (maximum concentration is 10 uM, 2.7-fold serially diluted, 10 points) at room temperature for 3 hours in an assay buffer containing 20 mM HEPES, pH 7.5, 50 mM NaCl, 0.1% BSA, 0.2 mM DTT, 0.005% Tween 20. Then 0.3 nM recombinant human IL-17RA was added to plate and further incubated at room temperature for 1 hour. After that Mab Anti-6His Tb cryptate Gold (Cat: 61HI2TLB, Cisbio Bioassays) and MAb Anti Human IgG-XL665 (Cat: 61HFCXLB, Cisbio Bioassays) were added to plate and further incubated at room temperature for 1 hour. The HTRF signals (ex337 nm, em620 nm/665 nm) were read on BMG PHERAstar FSX instrument. The inhibition percentage of human IL-17A interaction with its receptor human IL-17RA in presence of increasing concentrations of compounds was calculated based on the ratio of […]. The IC50 for each compound was derived from fitting the data to the four-parameter logistic equation by Dotmatics.

[2] = system: IL-17-induced GROα secretion from HT-29 cells; test: GROα release assay in human colorectal adenocarcinoma epithelial cell (HT-29, ELISA); assay type: cell-based; details: 10 ng/mL IL-17A, highest concentration 10 μM, read-out: Cellular assay HT29 cell/CXCL1 IC50
Method: The purpose of the assay is to test the ability of a compound to neutralize IL17A proteins. IL17 can stimulate human epithelial cells to secrete GROα. The ability of one compound of the invention to neutralize IL-17-induced GROα secretion from the human colorectal adenocarcinoma epithelia cell line HT-29 is tested in this assay.
HT-29 cells (human colorectal adenocarcinoma epithelia cell, ATCC) were stimulated with IL-17A (Novoprotein, #C774) in final concentration of 10 ng/mL. The resultant GROα response was measured using an ELISA kit from Invitrogen (#88-52122). HT-29 cells were cultured in complete medium (McCoy's 5A medium+10% FBS) and maintained in a tissue culture flask using standard techniques. On day 1, detached the cell by using TrypLE (Gibco, #12605036) and used the complete medium to neutralize. The cells were centrifuged at 11,00 rmp for 4 minutes. Re-suspended the cell pellet in complete medium and seeded 50,000 HT-29 cells into the 96-well assay plate (Corning, 3599) at 135 μL complete medium per well. The cells were incubated for overnight, at 37° C./5% CO2 to adherent the plate. On day 2, prepared a 4-fold serial dilution of the tested compound in DMSO. The highest concentration of the compound was 10 μM. Transferred 2 μL of the serial diluted compound from the serial dilution plate into the reagent plate which was contained 198 μL complete medium with 100 ng/mL IL-17A per well. The compounds were incubated with the IL-17A for 15 minutes. 15 μL mixtures from reagent plate were transferred into the cell assay plate. Incubated the plate at 37° C./5% CO2 for 48 hours. After the incubation, on day 4, GROα level were measured with GROα ELISA as the manufacturer's instructions. 50 μL supernatant was collected form the assay plate to ELISA plate. ELISA plate was read at 450 nm on a microplate reader and compared to a standard calibration curve.
Data were processed using GraphPad Prism. GROα concentration was calculated from the standard curve. IC50 was determined using the equation log concentration (inhibitor) against response and fitted to four parameters.

human IL-17A / human IL-17RA, sequence (Q16552 24-155): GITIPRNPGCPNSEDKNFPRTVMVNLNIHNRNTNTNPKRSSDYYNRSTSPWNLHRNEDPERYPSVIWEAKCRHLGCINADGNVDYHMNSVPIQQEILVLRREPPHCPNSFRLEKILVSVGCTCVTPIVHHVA

Row | Compound | IC50 [1] | IC50 ([2]; Homo sapiens, HT-29, 48 h) | IC50 ([2]; 48 hours)
1 | CNC(=O)C1(N2CC(C)NC2=O)Cc2ccc(NC(=O)[C@@H](NC(=O)c3ccnn3C)C3CCCCC3)cc2C1 (stereo partly drawn) [Example 1, N-((1S)-1-cyclohexyl-2-((2-(4-methyl-2-oxoimidazolidin-1-yl)-2-(methylcarbamoyl)-2,3-dihydro-1H-inden-5-yl)amino)-2-oxoethyl)-1-methyl-1H-pyrazole-5-carboxamide] | 379 nM | 898 nM | –
2 | COCC1(N2CC(C)NC2=O)Cc2ccc(NC(=O)[C@@H](NC(=O)c3ccnn3C)C3CCCCC3)cc2C1 (stereo partly drawn) [Example 2, N-((1S)-1-cyclohexyl-2-((2-(methoxymethyl)-2-(4-methyl-2-oxoimidazolidin-1-yl)-2,3-dihydro-1H-inden-5-yl)amino)-2-oxoethyl)-1-methyl-1H-pyrazole-5-carboxamide] | 1100 nM | 2560 nM | –
3 | CC1CN(C2Cc3ccc(NC(=O)[C@@H](NC(=O)c4ccnn4C)C4CCCCC4)cc3C2)C(=O)N1 (stereo partly drawn) [Example 3, N-((1S)-1-cyclohexyl-2-((2-(4-methyl-2-oxoimidazolidin-1-yl)-2,3-dihydro-1H-inden-5-yl)amino)-2-oxoethyl)-1-methyl-1H-pyrazole-5-carboxamide] | 3190 nM | 8430 nM | –
4 | CNC(=O)C1(N2CC(C)NC2=O)Cc2cc3nc([C@@H](NC(=O)c4ccnn4C)C4CCCCC4)[nH]c3cc2C1 (stereo partly drawn) [Example 5, 2-((S)-cyclohexyl(1-methyl-1H-pyrazole-5-carboxamido)methyl)-N-methyl-6-(4-methyl-2-oxoimidazolidin-1-yl)-1,5,6,7-tetrahydroindeno[5,6-d]imidazole-6-carboxamide] | 410 nM | 353 nM | –
5 | CNC(=O)C1(N2CC(C)NC2=O)Cc2cc(NC(=O)[C@@H](NC(=O)c3ccnn3C)C3CCCCC3)sc2C1 (stereo partly drawn) [Example 9, N-((1S)-1-cyclohexyl-2-((5-(4-methyl-2-oxoimidazolidin-1-yl)-5-(methylcarbamoyl)-5,6-dihydro-4H-cyclopenta[b]thiophen-2-yl)amino)-2-oxoethyl)-1-methyl-1H-pyrazole-5-carboxamide] | 8000 nM | > 10000 nM | –
6 | CC1CN(Cc2cc3cc(NC(=O)[C@@H](NC(=O)c4ccnn4C)C4CCCCC4)ccc3o2)C(=O)N1 (stereo partly drawn) [Example 11, N-((1S)-1-cyclohexyl-2-((2-((4-methyl-2-oxoimidazolidin-1-yl)methyl)benzofuran-5-yl)amino)-2-oxoethyl)-1-methyl-1H-pyrazole-5-carboxamide] | 1700 nM | 6520 nM | –
7 | CC1CN(Cc2cc3cc(NC(=O)[C@@H](NC(=O)c4ccnn4C)C4CCCCC4)ccc3[nH]2)C(=O)N1 (stereo partly drawn) [Example 12, N-((1S)-1-cyclohexyl-2-((2-((4-methyl-2-oxoimidazolidin-1-yl)methyl)-1H-indol-5-yl)amino)-2-oxoethyl)-1-methyl-1H-pyrazole-5-carboxamide] | 13000 nM | > 10000 nM | –
8 | CNC(=O)C1(N2CCNC2=O)Cc2ccc(NC(=O)[C@@H](NC(=O)c3ccnn3C)C3CCCCC3)cc2C1 (stereo partly drawn) [Example 13, N-((1S)-1-cyclohexyl-2-((2-(methylcarbamoyl)-2-(2-oxoimidazolidin-1-yl)-2,3-dihydro-1H-inden-5-yl)amino)-2-oxoethyl)-1-methyl-1H-pyrazole-5-carboxamide] | 1800 nM | 1500 nM | –
9 | CNC(=O)C1(N2CC(C)NC2=O)Cc2cc3nc([C@@H](NC(=O)c4nonc4C)C4CCCCC4)[nH]c3cc2C1 (stereo partly drawn) [Example 14, N-((1S)-cyclohexyl(6-(4-methyl-2-oxoimidazolidin-1-yl)-6-(methylcarbamoyl)-1,5,6,7-tetrahydroindeno[5,6-d]imidazol-2-yl)methyl)-4-methyl-1,2,5-oxadiazole-3-carboxamide] | 150 nM | 300 nM | –
10 | CC1CN(C2(C(N)=O)Cc3ccc(NC(=O)[C@@H](NC(=O)c4ccnn4C)C4CCCCC4)cc3C2)C(=O)N1 (stereo partly drawn) [Example 15, N-((1S)-2-((2-carbamoyl-2-(4-methyl-2-oxoimidazolidin-1-yl)-2,3-dihydro-1H-inden-5-yl)amino)-1-cyclohexyl-2-oxoethyl)-1-methyl-1H-pyrazole-5-carboxamide] | 550 nM | 1240 nM | –
11 | CNC(=O)C1(N2C(=O)NCC2C)Cc2ccc(NC(=O)[C@@H](NC(=O)c3ccnn3C)C3CCCCC3)cc2C1 (stereo partly drawn) [Example 17, N-((1S)-1-cyclohexyl-2-((2-(5-methyl-2-oxoimidazolidin-1-yl)-2-(methylcarbamoyl)-2,3-dihydro-1H-inden-5-yl)amino)-2-oxoethyl)-1-methyl-1H-pyrazole-5-carboxamide] | 2500 nM | 2640 nM | –
12 | CC[C@H]1CN(C2(C(=O)NC)Cc3ccc(NC(=O)[C@@H](NC(=O)c4ccnn4C)C4CCCCC4)cc3C2)C(=O)N1 (stereo partly drawn) [Example 18, N-((1S)-1-cyclohexyl-2-((2-((S)-4-ethyl-2-oxoimidazolidin-1-yl)-2-(methylcarbamoyl)-2,3-dihydro-1H-inden-5-yl)amino)-2-oxoethyl)-1-methyl-1H-pyrazole-5-carboxamide] | 1000 nM | 2550 nM | –
13 | CC[C@@H]1CN(C2(C(=O)NC)Cc3ccc(NC(=O)[C@@H](NC(=O)c4ccnn4C)C4CCCCC4)cc3C2)C(=O)N1 (stereo partly drawn) [Example 19, N-((1S)-1-cyclohexyl-2-((2-((R)-4-ethyl-2-oxoimidazolidin-1-yl)-2-(methylcarbamoyl)-2,3-dihydro-1H-inden-5-yl)amino)-2-oxoethyl)-1-methyl-1H-pyrazole-5-carboxamide] | 60 nM | 262 nM | –
14 | COc1ccccc1NCC1(N2CC3(CC3)CNC2=O)Cc2ccc(NC(=O)[C@@H](NC(=O)c3ccnn3C)C3CCCCC3)cc2C1 (stereo partly drawn) [Example 173, N-((1S)-1-cyclohexyl-2-((2-(((2-methoxyphenyl)amino)methyl)-2-(6-oxo-5,7-diazaspiro[2.5]octan-5-yl)-2,3-dihydro-1H-inden-5-yl)amino)-2-oxoethyl)-1-methyl-1H-pyrazole-5-carboxamide] | – | 153 nM | –
15 | Cc1nonc1C(=O)N[C@H](C(=O)Nc1ccc2c(c1)CC(N1C[C@@H](C(C)C)NC1=O)(C(C)(O)C(F)(F)F)C2)C(C1CC1)C1CC1 (stereo partly drawn) [Example 250, N-((2S)-1,1-dicyclopropyl-3-((2-((R)-4-isopropyl-2-oxoimidazolidin-1-yl)-2-(1,1,1-trifluoro-2-hydroxypropan-2-yl)-2,3-dihydro-1H-inden-5-yl)amino)-3-oxopropan-2-yl)-4-methyl-1,2,5-oxadiazole-3-carboxamide] | – | 190 nM | 271 nM
16 | Cc1nonc1C(=O)N[C@H](C(=O)Nc1ccc2c(c1)CC(C(=O)Nc1ccc(C3CC3)cc1Cl)(N1C[C@@H](C(C)C)NC1=O)C2)C(C1CC1)C1CC1 (stereo partly drawn) [Example 267, N-((2S)-1-((2-((2-chloro-4-cyclopropylphenyl)carbamoyl)-2-((R)-4-isopropyl-2-oxoimidazolidin-1-yl)-2,3-dihydro-1H-inden-5-yl)amino)-3,3-dicyclopropyl-1-oxopropan-2-yl)-4-methyl-1,2,5-oxadiazole-3-carboxamide] | > 10000 nM | – | –
17 | Cc1nonc1C(=O)N[C@H](C(=O)Nc1ccc2c(c1)CC(CN1C[C@@H](C(F)(F)F)NC1=O)O2)C(C1CC1)C1CC1 (stereo partly drawn) [Example 293, N-((2S)-1,1-dicyclopropyl-3-oxo-3-((2-(((S)-2-oxo-4-(trifluoromethyl)imidazolidin-1-yl)methyl)-2,3-dihydrobenzofuran-5-yl)amino)propan-2-yl)-4-methyl-1,2,5-oxadiazole-3-carboxamide] | > 10000 nM | – | –
